Laboratory results published in ChEMBL document CHEMBL4825675, “Longipetalol A: A Highly Modified Triterpenoid from Dichapetalum longipetalum” (J Nat Prod, 2021).
pIC50: −log10 of the molar value.

Tested on: RAW264.7
Assay: Antiinflammatory activity in mouse RAW264.7 cells assessed as inhibition of LPS-induced NO production incubated for 24 hrs in presence of LPS by Griess reagent-based assay
Format: functional, cell-based
Conditions: RAW264.7, 24 h

SMILES | pIC50
C/C(=C\[C@H]1C[C@@](O)([C@@H]2CC[C@]34C[C@]23C=CC2[C@]3(C)C(CC(=O)[C@]24C)C(C)(C)[C@@]2(CC(=O)c4ccccc4)O[C@@H]3OC2=O)C(=O)O1)CO (some centres undefined) | 4.94
C/C(=C\[C@H]1C[C@@](O)([C@@H]2CC[C@]34C[C@]23C=CC2[C@@]4(C)[C@H](O)C[C@H]3C(C)(C)/C(=C/C(=O)c4ccccc4)C(=O)C[C@]23C)C(=O)O1)CO (some centres undefined) | 5.80
C[C@@H]1C[C@H]2[C@@H]3CCC4=CC(=O)C=C[C@]4(C)[C@@]3(F)[C@@H](O)C[C@]2(C)[C@@]1(O)C(=O)CO [DEXAMETHASONE] | 5.16
C/C(=C\[C@H]1C[C@@](O)([C@@H]2CC[C@]34C[C@]23C=CC2[C@@]3(C)CC(=O)/C(=C\C(=O)c5ccccc5)C(C)(C)[C@@H]3CC(=O)[C@]24C)C(=O)O1)CO (some centres undefined) | 5.46
